PubChem BioAssay AID248 (DTP/NCI, 2004)
Values joined by “and” are separate entries in the source; they are usually repeats but may differ in a detail not shown here. Equal values may be shown once. Inconclusive results and toxic doses are left out. Rule as the data show it: active = T/C of 150% or more; inactive = T/C below 125%.

Tested on: L1210 leukemia ip in BDF1 mice, survival T/C
Test: NCI In Vivo Anticancer Drug Screen. Data for tumor model L1210 Leukemia (intraperitoneal) in B6D2F1 (BDF1) mice
Settings: endpoint: mean survival time, higher = longer survival
Summary of the method: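 Transplantable tumor model; survival measured in treated vs vehicle control mice. Value = treated/control.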

[1] = dose: 100.0 mg/kg/injection, schedule: Q01DX009 (ip), vehicle: Klucel (hydroxypropylcellulose) (HPC)
[2] = dose: 200.0 mg/kg/injection, schedule: Q01DX009 (ip), vehicle: Klucel (hydroxypropylcellulose) (HPC)
[3] = dose: 400.0 mg/kg/injection, schedule: Q01DX009 (ip), vehicle: Klucel (hydroxypropylcellulose) (HPC)
[4] = dose: 100.0 mg/kg/injection, schedule: Q04DX003 (ip), vehicle: Klucel (hydroxypropylcellulose) (HPC)
[5] = dose: 200.0 mg/kg/injection, schedule: Q04DX003 (ip), vehicle: Klucel (hydroxypropylcellulose) (HPC)
[6] = dose: 400.0 mg/kg/injection, schedule: Q04DX003 (ip), vehicle: Klucel (hydroxypropylcellulose) (HPC)
[7] = dose: 100.0 mg/kg/injection, schedule: Q04DX002 (ip), vehicle: Klucel (hydroxypropylcellulose) (HPC)
[8] = dose: 200.0 mg/kg/injection, schedule: Q04DX002 (ip), vehicle: Klucel (hydroxypropylcellulose) (HPC)
[9] = dose: 400.0 mg/kg/injection, schedule: Q04DX002 (ip), vehicle: Klucel (hydroxypropylcellulose) (HPC)
[10] = dose: 100.0 mg/kg/injection, schedule: Q01DX001 (ip), vehicle: Klucel (hydroxypropylcellulose) (HPC)
[11] = dose: 200.0 mg/kg/injection, schedule: Q01DX001 (ip), vehicle: Klucel (hydroxypropylcellulose) (HPC)
[12] = dose: 50.0 mg/kg/injection, schedule: Q01DX009 (ip), vehicle: saline with Tween-80
[13] = dose: 200.0 mg/kg/injection, schedule: Q01DX009 (ip), vehicle: saline with Tween-80
[14] = dose: 100.0 mg/kg/injection, schedule: Q01DX001 (ip), vehicle: saline
[15] = dose: 200.0 mg/kg/injection, schedule: Q01DX001 (ip), vehicle: saline
[16] = dose: 400.0 mg/kg/injection, schedule: Q01DX001 (ip), vehicle: saline
[17] = dose: 100.0 mg/kg/injection, schedule: Q04DX003 (ip), vehicle: saline with Tween-80
[18] = dose: 200.0 mg/kg/injection, schedule: Q04DX003 (ip), vehicle: saline with Tween-80
[19] = dose: 400.0 mg/kg/injection, schedule: Q04DX003 (ip), vehicle: saline with Tween-80
[20] = dose: 25.0 mg/kg/injection, schedule: Q04DX003 (ip), vehicle: Klucel (hydroxypropylcellulose) (HPC)
[21] = dose: 50.0 mg/kg/injection, schedule: Q04DX003 (ip), vehicle: Klucel (hydroxypropylcellulose) (HPC)
[22] = dose: 25.0 mg/kg/injection, schedule: Q01DX009 (ip), vehicle: saline
[23] = dose: 50.0 mg/kg/injection, schedule: Q01DX009 (ip), vehicle: saline

Measured: T/C

Cc1ccc(NC(=O)SCc2ccccc2)c([N+](=O)[O-])c1
inactive: [1] 98 % of control | [2] 100 % of control | [3] 93 % of control

CCCCCCCCCCNC(C)=O
inactive: [1] 104 % of control | [4] 109 % of control | [2] 106 % of control | [5] 96 % of control | [3] 89 % of control | [6] 102 % of control

COc1ccc(C(O)c2cc3ccccc3[nH]2)cc1 (stereo not given)
inactive: [7] 95 % of control | [8] 109 % of control | [9] 106 % of control

Cc1cccc(Cl)c1NC(=O)c1cccc([N+](=O)[O-])c1
inactive: [1] 96 % of control | [2] 90 % of control | [3] 93 % of control

O=C1c2ccccc2C(=O)N1c1ccc(CBr)cc1
inactive: [10] 98 % of control | [1] 92 % of control and 94 % of control | [7] 106 % of control and 89 % of control | [4] 98 % of control | [11] 94 % of control | [2] 89 % of control | [8] 97 % of control and 102 % of control | [5] 90 % of control | dose: 400.0 mg/kg/injection, schedule: Q01DX001 (ip), vehicle: Klucel (hydroxypropylcellulose) (HPC) 89 % of control | [9] 92 % of control and 115 % of control | [6] 102 % of control

O=C(c1ccccc1)c1cc(-c2ccccc2)n(C2CCCCC2)c1
inactive: dose: 25.0 mg/kg/injection, schedule: Q01DX009 (ip), vehicle: saline with Tween-80 96 % of control and 120 % of control | [12] 94 % of control and 95 % of control and 98 % of control | [13] 91 % of control and 92 % of control

O=c1[nH]nc(S(=O)(=O)NC2CCCCC2)c(=O)[nH]1
inactive: dose: 100.0 mg/kg/injection, schedule: Q01DX001 (ip), vehicle: carboxymethylcellulose (CMC) 101 % of control | dose: 200.0 mg/kg/injection, schedule: Q01DX001 (ip), vehicle: carboxymethylcellulose (CMC) 95 % of control | dose: 400.0 mg/kg/injection, schedule: Q01DX001 (ip), vehicle: carboxymethylcellulose (CMC) 110 % of control

N#Cc1c(N)n(C2OC(CO)C(O)C2O)c2ncnc(N)c12 (stereo not given)
inactive: dose: 1.0 mg/kg/injection, schedule: Q01DX005 (ip), vehicle: saline 115 % of control | dose: 2.0 mg/kg/injection, schedule: Q01DX005 (ip), vehicle: saline 120 % of control

CC1(C)CSCC(C)(C)C(=O)C1=O
inactive: dose: 50.0 mg/kg/injection, schedule: Q04DX002 (ip), vehicle: saline with Tween-80 100 % of control | dose: 100.0 mg/kg/injection, schedule: Q04DX002 (ip), vehicle: saline with Tween-80 109 % of control | dose: 200.0 mg/kg/injection, schedule: Q04DX002 (ip), vehicle: saline with Tween-80 103 % of control

CN(C)C(=O)c1ccccc1O
inactive: [1] 100 % of control | [2] 90 % of control | [3] 90 % of control

CN(C)c1ccc(-c2cc[n+](C)cc2)cc1
inactive: dose: 3.13 mg/kg/injection, schedule: Q04DX003 (ip), vehicle: saline 101 % of control | dose: 6.25 mg/kg/injection, schedule: Q04DX003 (ip), vehicle: saline 101 % of control | dose: 12.5 mg/kg/injection, schedule: Q04DX003 (ip), vehicle: saline 104 % of control

O=C(Nc1ccc(Cl)cc1)OCCN(CCOC(=O)Nc1ccc(Cl)cc1)Cc1ccccc1
inactive: [14] 101 % of control | [15] 95 % of control | [16] 95 % of control

O=C(NC(CO)C(O)c1ccc(N=Nc2cccc3ccccc23)cc1)C(Cl)Cl (stereo not given)
inactive: [17] 101 % of control | [18] 95 % of control | [19] 93 % of control

COc1ccc(OC)c(C(=O)CC2OCCO2)c1
inactive: [14] 95 % of control | [15] 95 % of control | [16] 105 % of control

[O]=[Zr]
inactive: [20] 90 % of control | [21] 88 % of control | [4] 88 % of control

CCN(/C=C1/SC(=S)NC1=O)CC
inactive: [12] 109 % of control | dose: 100.0 mg/kg/injection, schedule: Q01DX009 (ip), vehicle: saline with Tween-80 98 % of control | [13] 119 % of control

CC(C)(C)NC(=O)Oc1cccnc1
inactive: [1] 93 % of control | [2] 102 % of control

CN(C)CC(CN1c2ccccc2Sc2ccccc21)N(C)C (stereo not given)
inactive: dose: 6.25 mg/kg/injection, schedule: Q01DX009 (ip), vehicle: saline 94 % of control | dose: 12.5 mg/kg/injection, schedule: Q01DX009 (ip), vehicle: saline 105 % of control | [22] 92 % of control | dose: 25.0 mg/kg/injection, schedule: Q04DX003 (ip), vehicle: saline 96 % of control | [23] 101 % of control | dose: 50.0 mg/kg/injection, schedule: Q04DX003 (ip), vehicle: saline 93 % of control | dose: 100.0 mg/kg/injection, schedule: Q04DX003 (ip), vehicle: saline 90 % of control

COc1ccc(OC)c(NC(=O)Oc2ccc(Br)cc2Br)c1
inactive: [7] 104 % of control | [8] 104 % of control | [9] 86 % of control

O=C(O)CCc1ccc([N+](=O)[O-])cc1Cl
inactive: [4] 96 % of control | [5] 101 % of control | [6] 101 % of control

O=CNc1cc2c3c(c1)CCCN3CCC2
inactive: dose: 12.5 mg/kg/injection, schedule: Q01DX001 (ip), vehicle: saline 102 % of control | dose: 25.0 mg/kg/injection, schedule: Q01DX001 (ip), vehicle: saline 108 % of control | [22] 105 % of control | dose: 50.0 mg/kg/injection, schedule: Q01DX001 (ip), vehicle: saline 107 % of control | [23] 106 % of control | [14] 100 % of control

O=c1c2ccccc2nc(-c2ccccc2)n1O
inactive: [4] 103 % of control | [5] 106 % of control | [6] 91 % of control

C=CCc1c[nH]c(=O)[nH]c1=O.[Hg]
inactive: dose: 12.5 mg/kg/injection, schedule: Q01DX009 (ip), vehicle: Klucel (hydroxypropylcellulose) (HPC) 93 % of control | dose: 25.0 mg/kg/injection, schedule: Q01DX009 (ip), vehicle: Klucel (hydroxypropylcellulose) (HPC) 98 % of control | [20] 92 % of control | [21] 89 % of control | [4] 97 % of control

CCOC(=O)Cc1ccc(N)cc1
inactive: [10] 104 % of control | [11] 101 % of control

COSc1ccc([N+](=O)[O-])cc1[N+](=O)[O-]
inactive: [17] 96 % of control | [18] 100 % of control | [19] 103 % of control

N=C(N=c1cc(C(=O)NC(=N)NC(=N)Nc2ccccc2)n(C(=N)NC(=N)Nc2ccccc2)c(C(=O)NC(=N)NC(=N)Nc2ccccc2)c1)NC(=N)Nc1ccccc1
inactive: dose: 100.0 mg/kg/injection, schedule: Q01DX009 (ip), vehicle: saline 105 % of control | dose: 200.0 mg/kg/injection, schedule: Q01DX009 (ip), vehicle: saline 94 % of control | dose: 400.0 mg/kg/injection, schedule: Q01DX009 (ip), vehicle: saline 87 % of control
